1 compound from ChEMBL document CHEMBL1141464, “Rational design of the first small-molecule antagonists of NHERF1/EBP50 PDZ domains” (Bioorg Med Chem Lett, 2008) can be followed below.

Activity calls are given as the source filed them. No cut-off for these calls is given here.

For assay [1], the target named is Cystic fibrosis transmembrane conductance regulator (Homo sapiens) (UniProt P13569). Briefly: Binding affinity to GST tagged human CFTR PDZ2 domain upto 300 uM.
Assay [2] concerns the target Beta-2 adrenergic receptor (Homo sapiens) (UniProt P07550). Briefly: Binding affinity to GST tagged human beta 2 adrenergic receptor PDZ1 domain upto 300 uM.

Chain of Cystic fibrosis transmembrane conductance regulator (Homo sapiens) (P13569 whole entry, looked up, the tested form may be a part): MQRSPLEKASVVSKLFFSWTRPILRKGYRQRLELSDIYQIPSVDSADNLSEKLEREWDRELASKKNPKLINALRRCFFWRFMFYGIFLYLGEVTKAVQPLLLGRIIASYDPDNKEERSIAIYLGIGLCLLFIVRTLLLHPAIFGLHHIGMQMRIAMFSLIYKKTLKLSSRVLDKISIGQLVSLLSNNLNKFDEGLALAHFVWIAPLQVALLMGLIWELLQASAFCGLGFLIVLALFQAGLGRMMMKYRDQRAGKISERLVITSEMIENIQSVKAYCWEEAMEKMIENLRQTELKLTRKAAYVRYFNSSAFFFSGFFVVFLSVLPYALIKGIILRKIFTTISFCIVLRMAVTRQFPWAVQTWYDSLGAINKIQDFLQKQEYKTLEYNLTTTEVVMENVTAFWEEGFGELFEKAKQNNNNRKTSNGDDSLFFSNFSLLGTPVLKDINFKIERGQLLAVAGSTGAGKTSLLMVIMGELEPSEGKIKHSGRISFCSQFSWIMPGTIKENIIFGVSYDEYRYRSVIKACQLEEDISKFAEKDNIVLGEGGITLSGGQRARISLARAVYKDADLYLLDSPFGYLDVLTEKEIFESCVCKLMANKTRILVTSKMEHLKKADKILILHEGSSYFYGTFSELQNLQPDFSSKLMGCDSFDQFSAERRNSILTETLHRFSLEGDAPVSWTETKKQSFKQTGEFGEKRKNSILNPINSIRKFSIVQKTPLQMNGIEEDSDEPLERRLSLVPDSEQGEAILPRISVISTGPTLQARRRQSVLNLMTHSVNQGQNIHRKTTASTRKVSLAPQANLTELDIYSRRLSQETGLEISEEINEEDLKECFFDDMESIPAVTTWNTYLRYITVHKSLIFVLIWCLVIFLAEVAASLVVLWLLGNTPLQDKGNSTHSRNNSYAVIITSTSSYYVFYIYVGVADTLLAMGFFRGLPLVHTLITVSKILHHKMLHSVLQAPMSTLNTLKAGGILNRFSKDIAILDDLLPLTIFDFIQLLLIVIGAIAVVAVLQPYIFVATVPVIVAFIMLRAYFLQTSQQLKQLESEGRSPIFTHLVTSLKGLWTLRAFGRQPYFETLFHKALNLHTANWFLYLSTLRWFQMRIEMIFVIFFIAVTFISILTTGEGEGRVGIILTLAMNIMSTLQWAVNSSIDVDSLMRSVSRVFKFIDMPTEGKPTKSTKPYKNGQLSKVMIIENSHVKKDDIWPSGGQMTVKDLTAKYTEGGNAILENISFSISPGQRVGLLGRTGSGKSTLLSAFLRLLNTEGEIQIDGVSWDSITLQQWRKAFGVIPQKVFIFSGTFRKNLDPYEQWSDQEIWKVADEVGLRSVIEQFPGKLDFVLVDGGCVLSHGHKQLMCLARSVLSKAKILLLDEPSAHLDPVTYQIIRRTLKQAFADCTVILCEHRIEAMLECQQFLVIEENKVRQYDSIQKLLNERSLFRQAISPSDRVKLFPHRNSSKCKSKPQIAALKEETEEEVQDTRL
Chain of Beta-2 adrenergic receptor (Homo sapiens) (P07550 whole entry, looked up, the tested form may be a part): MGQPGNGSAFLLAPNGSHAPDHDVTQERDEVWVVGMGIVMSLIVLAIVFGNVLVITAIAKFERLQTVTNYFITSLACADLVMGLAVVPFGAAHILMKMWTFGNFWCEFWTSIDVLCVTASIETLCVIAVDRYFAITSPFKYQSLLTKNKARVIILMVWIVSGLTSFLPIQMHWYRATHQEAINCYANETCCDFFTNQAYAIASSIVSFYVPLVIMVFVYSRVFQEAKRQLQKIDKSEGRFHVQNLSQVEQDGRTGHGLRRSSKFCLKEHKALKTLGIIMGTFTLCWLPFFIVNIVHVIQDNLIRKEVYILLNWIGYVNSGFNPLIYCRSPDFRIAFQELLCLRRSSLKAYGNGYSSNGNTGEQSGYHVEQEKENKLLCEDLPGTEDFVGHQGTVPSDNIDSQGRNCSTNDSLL

`CCCNC(=O)c1[nH]c2cc(C)c(C(=O)O)cc2c1CCc1ccccc1`: the outcome in assay [1] and in assay [2] was inactive.
